Results published in BindingDB's records for doi:10.1021/jm00119a003 (Northeastern University, 1988).

Target: D(1A) dopamine receptor (Canis familiaris)
Assay: Ability to inhibit the binding of [3H]-SCH- 23390 to canine striatal membrane

Question: With CN1CCc2cc(I)c(O)cc2C(c2ccc(N=[N+]=[N-])cc2)C1 (stereo unspecified) [5-(4-Azido-phenyl)-8-iodo-3-methyl-2,3,4,5-tetrahydro-1H-benzo[d]azepin-7-ol] as the compound, how does the Kd read?
Answer: 0.15 nM
